# Test results: PubChem BioAssay (NCI)
#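 Following 48 hours of exposure in 96-well plates, responses at five concentrations were used to interpolate endpoints linearly. TGI: total growth inhibition.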
# Columns and labels:
# Assay in all cases: NCI anticancer screen, dose series, 48 h
# NCI/ADR-RES ovarian = test system: NCI/ADR-RES ovarian
# UACC-62 melanoma = test system: UACC-62 melanoma
# SK-MEL-5 melanoma = test system: SK-MEL-5 melanoma
# OVCAR-3 ovarian = test system: OVCAR-3 ovarian
# OVCAR-8 ovarian = test system: OVCAR-8 ovarian
# COLO 205 colon = test system: COLO 205 colon
# K-562 leukemia = test system: K-562 leukemia
# BT-549 breast = test system: BT-549 breast
# SF-295 CNS = test system: SF-295 CNS
# EKVX NSCLC = test system: EKVX NSCLC
# MOLT-4 leukemia = test system: MOLT-4 leukemia
# SR leukemia = test system: SR leukemia
# PC-3 prostate = test system: PC-3 prostate
Structure (SMILES),TGI (NCI/ADR-RES ovarian) [µM],TGI (UACC-62 melanoma) [µM],TGI (SK-MEL-5 melanoma) [µM],TGI (OVCAR-3 ovarian) [µM],TGI (OVCAR-8 ovarian) [µM],TGI (COLO 205 colon) [µM],TGI (K-562 leukemia) [µM],TGI (BT-549 breast) [µM],TGI (SF-295 CNS) [µM],TGI (EKVX NSCLC) [µM],TGI (MOLT-4 leukemia) [µM],TGI (SR leukemia) [µM],TGI (PC-3 prostate) [µM]
N#Cc1c(-c2ccccc2)nc(-c2ccccc2)sc1=S,> 100,> 100,> 100,> 100,> 100,> 100,> 100,> 100,> 100,> 100,–,–,–
O=C1c2ccccc2C(=O)N1Cc1ccccc1-c1c2nc(c(-c3ccccc3CN3C(=O)c4ccccc4C3=O)c3ccc([nH]3)c(-c3ccccc3CN3C(=O)c4ccccc4C3=O)c3nc(c(-c4ccccc4CN4C(=O)c5ccccc5C4=O)c4ccc1[nH]4)C=C3)C=C2,–,> 100,> 100,> 100,> 100,> 100,> 100,–,> 100,–,> 100,> 100,–
NC1=NS(=O)(=O)Nc2nc(-c3ccc(Cl)cc3)c(-c3ccc(Cl)cc3)nc21,–,> 100,> 100,> 100,> 100,> 100,> 100,–,> 100,–,> 100,> 100,–
O=c1[nH]nc(Cc2ccc([N+](=O)[O-])cc2)n1CCO,> 100,> 100,> 100,> 100,> 100,> 100,> 100,> 100,> 100,> 100,–,–,> 100
O=C(O)CC[N+]1=CCC(c2ccccc2)(c2ccccc2)O1,–,> 100,> 100,> 100,> 100,> 100,> 100,> 100,> 100,> 100,> 100,–,> 100
CCCCCCCCCCCCCCCCCC(=O)O[C@H](COC(=O)CCCCCCCCCCC)COC(=O)CCCCCCCCCCCCCCC,–,> 100,> 100,> 100,> 100,> 100,> 100,–,> 100,–,> 100,> 100,–
NP(=O)(OCC1=CC(=O)c2ccccc2C1=O)N(CCBr)CCBr (centres undefined),> 73.4,5.3,3.21,> 25.6,37.2,> 21.1,> 100,–,25.2,34.6,10.8,9.75,46
COC(=O)N/N=C(\C)C(CN1CCCCC1)C(C1=C(O)c2ccccc2OC1)c1ccccc1 (centres undefined),–,> 100,> 100,> 100,> 100,> 100,> 100,–,> 100,> 100,> 100,> 100,–
COc1cc(C)c2c(c1C)OC(=O)c1c(C)c(Cl)c(O)c(C=O)c1O2,–,43.6,> 100,9.5,27.4,76.7,45.6,–,–,26.4,32,31.9,–
Cc1cc(C)[n+](CCOc2ccc(/C(=C(/Cl)c3ccccc3)c3ccccc3)cc2)c(C)c1,–,4.92,1.64,4.07,8.41,0.961,8.11,–,11.2,13.2,11.3,4.32,–
Cc1ccc2c(c1)[nH]c1cc(C(F)(F)F)ccc1[p+]2=O (centres undefined),> 100,54.9,34,> 100,> 100,31.5,66.4,–,81.9,22.2,52,> 100,73.5
O=C(CSc1nnc(Cc2ccccc2)o1)Nc1ccc([N+](=O)[O-])cc1,–,> 100,> 100,> 100,> 100,> 100,> 100,–,> 100,–,> 100,–,–
CCCC(C)NC1=C(NC(C)=O)C(=O)c2ccccc2C1=O (centres undefined),–,> 100,> 100,> 100,> 100,> 100,> 100,–,> 100,> 100,> 100,> 100,–
O=C1OC2(OC2c2ccccc2)c2ccccc21 (centres undefined),–,> 100,> 100,> 100,> 100,> 100,> 100,–,–,> 100,> 100,> 100,–
Oc1cc(C2OCCCO2)cc(O)c1O,–,> 100,> 100,> 100,> 100,> 100,> 100,–,> 100,> 100,> 100,> 100,–
CC(=O)Nc1cc2c(s1)CCC1CC(=O)NN=C21 (centres undefined),–,> 100,> 100,> 100,> 100,> 100,> 100,–,> 100,> 100,> 100,> 100,–
